# Test results published in US20260337177A1, “TEAD CORE INHIBITORS FOR CANCER THERAPEUTICS” (University of Florida Research Foundation, Incorporated, priority 2023, published 2026).
# Tests used:
# TEAD2-YBD C380S = TEAD2-YBD C380S (Homo sapiens, UniProt Q15562, C380S); assay: Intact protein mass spectrometry, TEAD2-YBD C380S variant; format: binding; settings: 15 hours
# Description: To substantiate the covalent interaction between Compound 22 and TEAD2-YBD, intact mass spectrometry was employed to monitor the protein's mass change upon binding with the compound.
# Human TEAD2-YBD (217-447) (TEAD2_HUMAN, UniProtKB Q15562) was expressed and purified as previously described.^79 To eliminate endogenous palmitoylation, Cys380Ser mutant (TEAD2-C380S) was generated and purified using the same protocol. [00392]hTEAD2 was expressed, purified, and deacylated as reported.^52 Briefly, the yap-binding domain (YBD) of […] was cloned in pET28a vector with the N terminal 6x His tag. The recombinant protein was induced at 16 ° C using 0.2 mM isopropyl bD-1-thiogalactopyranoside (IPTG) for 10 h for overexpression in Escherichia coli strain BL2 (DE3) CodonPlus competent cells (Invitrogen). Then cells were harvested, followed by lysis and the supernatant was loaded onto the HisTrap FF column (GE Healthcare). The hTEAD4-YBD was eluted with elution buffer (50 mM Hepes 8.0, 300 mM NaCl, 10% Glycerol, 1 mM TCEP, 125 mM imidazole). To eliminate the endogenous fatty acid, the protein was incubated with 0.2 mM hydroxylamine for 2 h and further purified through gel filtration chromatography in the final buffer (25 mM Hepes pH 8.0, 100 mM NaCl, 1 mM TCEP, and 5% glycerol). Collected fractions were concentrated to 5 mg/mL and flash frozen for further use. […]
# TAZ-TEAD = assay: Co-immunoprecipitation of endogenous TAZ and TEAD in NCI-H226 cells; format: cell-based; settings: 1 μM, 24 hours
# Procedure: To assess if compound 22 inhibits the interaction between YAP/TAZ and TEAD proteins within the cell, compound 22 was administered to NF2-deficient NCI-H226 cells for 24 hours. Subsequently, the endogenous TEAD protein was isolated through immunoprecipitation using a pan-TEAD antibody and examined the immunocomplexes for the presence of YAP/TAZ proteins using anti-YAP/TAZ antibodies (as depicted in FIG. 18).
# […] protein lysate extracted using lysis buffer were incubated with 5 μL pan-TEAD antibody (CST #13295, 33 g/ml) at 4 ° C overnight with rotation, and then incubated with 15 μL Protein G magnetic beads (Fisher #88847) at R.T. for 1 hour with rotation. After binding, beads were washed three times with lysis buffer and one time with ddH2O. IP samples were eluted using 1× gel loading buffer supplied with 20 mM DTT and boiled at 96 ° C for 10 min. […] protein lysate were used for input, and 3% IP flow-thru were used for binding efficiency control. *0 indicated DMSO control. For the detection process, primary antibodies used were: YAP/TAZ rabbit monoclonal antibody (mAb) at a dilution of 1:2000, CST #8418S; Pan-TEAD rabbit mAb at 1:2000, CST #13295S; and 3-actin mouse mAb at 1:8000, Sigma #A5316. Secondary antibodies applied in 1× TBST were: Rabbit IgG-HRP at 1:10000 and Mouse IgG-HRP also at 1:10000.
# Huh7 cells = assay: Cell cycle analysis by flow cytometry, Huh7; format: cell-based, human; settings: 5 and 10 μM, 48 hours
# Procedure: To study the potential mechanistic pathways responsible for cell proliferation inhibition by compound 22, the change of cell cycle in Huh7 and HepG2 liver cancer cell lines was evaluated. DNA-based cell cycle analysis was performed using flow cytometry. […] To explore whether compound 22 also induces G1 phase arrest in HepG2 cells similar to its effects on Huh7 cells, parallel investigations were performed. […] However, the impact of 22 on inducing G1 phase arrest was less pronounced in HepG2 cells compared to Huh7 cells.
# For cell cycle analysis, cells were fixed with pre-cold 70% ethanol for 30 minutes. Then the cells were washed with PBS and stained with propidium iodide working solution for 30 minutes in the dark. The stained cells were analyzed by flow cytometry. Cell cycle distribution was analyzed using FlowJo_V10 software. For each experiment, 20000 events per sample were recorded. Percentages of cells in G0/G1, S and G2/M phases were calculated and shown in DNA histograms.
# CTGF and CYR61 = CTGF and CYR61 expression in xenograft tumor tissue (western blotting); format: in vivo; settings: vs vehicle groups
# Description: To elucidate the mechanism of compound 22-mediated antitumor activity in vivo, the expression level of CTGF and CYR61 in the tumor tissue were examined by western blotting.
# CYR61 [1] = assay: CYR61 mRNA expression by RT-qPCR in Huh7 cells; format: cell-based, human; settings: dose-dependent
# Procedure: (§1) Huh7 and HepG2 liver cancer cells were seeded at 1×10^6 cells/dish and allowed to adhere overnight. The cells were then treated with indicated doses of compounds in medium for 24 hours. The cells were then harvested, and total RNA was purified using the Aurum total RNA mini kit (Bio-Rad #732-6820) according to the manufacturer's instructions. Complementary DNA was synthesized from 500 ng total RNA template by iScript reverse transcription kit (Bio-Rad #1725037) according to the manufacturer's instructions. Real-time PCR reactions utilized 60 ng cDNA and PrimePCR primers from Bio-Rad (Unique Assay ID: human GAPDH-qHsaCEP0041396, human CTGF-qHsaCEP0024255, human CYR61-qHsaCEP0024230) designed for SYBR Green gene expression analysis (Bio-Rad #1726270). All reactions were carried out in triplicate using Quant Studio 3 PCR system (Applied Biosystems). Relative gene expression level was quantified via ΔΔCt method by using GAPDH as an endogenous reference.
# CYR61 [2] = assay: CYR61 mRNA expression by RT-qPCR in HepG2 cells; format: cell-based, human; settings: dose-dependent
# Procedure: as §1
# Chain of TEAD2-YBD C380S (Q15562 217-447 C380S): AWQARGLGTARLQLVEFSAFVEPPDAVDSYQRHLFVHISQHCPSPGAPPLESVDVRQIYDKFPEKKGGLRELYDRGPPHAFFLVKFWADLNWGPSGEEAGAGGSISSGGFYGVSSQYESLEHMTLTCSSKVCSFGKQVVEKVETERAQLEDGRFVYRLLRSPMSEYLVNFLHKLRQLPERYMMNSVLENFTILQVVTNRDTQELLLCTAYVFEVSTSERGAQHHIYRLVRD
smiles,measurement,setting,value
"O=C(CCl)c1c[nH]c2cc(Cl)c(OCc3cccc(C(F)(F)F)c3)cc12 [Compound 22, 2-chloro-1-(6-chloro-5-((3-(trifluoromethyl)benzyl)oxy)-1H-indol-3-yl)ethan-1-one]",Mass shift of TEAD2-YBD C380S variant,TEAD2-YBD C380S,absence of a mass shift
same,Co-IP of TAZ with pan-TEAD antibody,TAZ-TEAD,not affecting TAZ
same,"Percentage of cells in G1 phase, Huh7",Huh7 cells; control group 36.4%,58.2%
same,"Proportion of cells in S/G2 phases, Huh7",Huh7 cells,distinct decrease
same,CTGF expression in tumor tissue,CTGF and CYR61,remarkable decrease
same,CYR61 expression in tumor tissue,CTGF and CYR61,remarkable decrease
same,"CYR61 mRNA expression, Huh7",CYR61 [1],significantly inhibited
same,"CYR61 mRNA expression, HepG2",CYR61 [2],significantly inhibited
